In US6566547B1, “Fungicides” (Zeneca Limited, priority 1984, dated 2003) one finds melting point data, which are given here for one molecule.

Where a name gives a salt, the structure may show the parent alone.

Broadly, the melting point is the temperature, or range, at which the solid turns liquid.

The molecule `CO/C=C(/C(=O)OC)c1ccccc1` (as salt: sulphate) gave a melting point of 37 to 38 °C.
